Test results as given in article PMC4308083, “Cytokine-Induced Loss of Glucocorticoid Function: Effect of Kinase Inhibitors, Long-Acting β2-Adrenoceptor Agonist and Glucocorticoid Receptor Ligands” (PLoS ONE, 2015).
Like-named read-outs stand apart in the source and are kept apart here.

How the values were obtained:
[1] = biological target: T1, glucocorticoid receptor (NR3C1) (Homo sapiens, UniProt P04150); experiment: 2×GRE luciferase reporter activation by NR3C1 ligands in BEAS-2B cells; format: cell-based; conditions: for EC50: pEC50 (M)
T1 construct: BEAS-2B cells stably transfected with a glucocorticoid response element (2×GRE) driven luciferase reporter plasmid; endogenous in cells; host or cells: BEAS-2B human bronchial epithelial cells stably carrying a 2×GRE luciferase reporter
T1 sequence (P04150 1-777): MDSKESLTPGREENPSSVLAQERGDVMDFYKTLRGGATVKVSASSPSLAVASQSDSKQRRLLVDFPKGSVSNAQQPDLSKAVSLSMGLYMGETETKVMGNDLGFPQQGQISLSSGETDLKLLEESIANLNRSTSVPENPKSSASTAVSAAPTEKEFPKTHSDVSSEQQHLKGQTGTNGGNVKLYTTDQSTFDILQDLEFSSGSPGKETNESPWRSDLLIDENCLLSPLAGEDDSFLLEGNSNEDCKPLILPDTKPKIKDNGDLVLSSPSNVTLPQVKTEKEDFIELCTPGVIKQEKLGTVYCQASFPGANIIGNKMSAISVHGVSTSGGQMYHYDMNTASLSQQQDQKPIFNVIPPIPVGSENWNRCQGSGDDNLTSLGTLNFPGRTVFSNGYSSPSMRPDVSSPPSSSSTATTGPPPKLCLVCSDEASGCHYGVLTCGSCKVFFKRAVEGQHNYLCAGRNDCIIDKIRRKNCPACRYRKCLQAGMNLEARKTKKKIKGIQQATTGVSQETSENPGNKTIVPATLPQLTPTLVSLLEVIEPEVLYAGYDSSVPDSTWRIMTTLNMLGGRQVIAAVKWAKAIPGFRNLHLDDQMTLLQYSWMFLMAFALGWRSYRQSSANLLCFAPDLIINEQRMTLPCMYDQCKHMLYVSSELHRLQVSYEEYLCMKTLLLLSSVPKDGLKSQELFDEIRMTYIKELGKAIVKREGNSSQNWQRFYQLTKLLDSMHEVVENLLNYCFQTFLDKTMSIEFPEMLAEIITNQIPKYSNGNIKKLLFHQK
Procedure: (§1) BEAS-2B cells stably transfected with a glucocorticoid response element (2×GRE) driven luciferase reporter plasmid, pGL3.neo.TATA.neo [23], were cultured in medium containing 0.25 mg/ml G-418 (Promega, Madison, WI). Cells were grown to confluence in 24 or 48 well plates and incubated overnight in serum-free media prior to experiments. Cells were harvested in reporter lysis buffer and luciferase assays performed according to the manufacturer’s instructions (Firefly Luciferase Assay Kit; Biotium; Hayward, CA) using a 20/20n luminometer (Promega).
Cells were harvested 6 h after NR3C1 ligand addition for luciferase assay.
(§2) Cells were harvested after 6 h for luciferase assays. Data (n = 7), expressed as fold activation, are plotted as means ± S.E. Lines of best fit were added in panel B. Statistical analyses were performed by ANOVA with a Dunnett’s test comparing each NR3C1 ligand alone versus in the presence of TNF and/or Form. *, P<0.05; **, P<0.01; ***, P<0.001.

[2] = system: CDKN1C, DUSP1, RGS2 and TSC22D3 mRNA in BEAS-2B cells; experiment: RT-PCR of glucocorticoid-inducible gene expression in BEAS-2B cells
Procedure: Cells were harvested 6 h after Dex addition.
BEAS-2B cells were pre-treated for 30 min with either 10 or 3 μM of the JNK MAPK inhibitor JNK inhibitor VIII (JNK) or 10 μM of the IKK2 inhibitor PS-1145 (PS), before addition of 10 ng/ml tumor necrosis factor-α (TNF).
Cells were harvested 6 h after NR3C1 ligand addition.

2×GRE reporter = experiment: Modulation of dexamethasone/NR3C1 ligand-induced 2×GRE reporter activation (kinase inhibitors, TNF, formoterol) in BEAS-2B cells; format: cell-based, human; conditions: 30 min pre-treatment, dexamethasone, 6 h (Fig. 3B, Fig. 4); JNK inhibitor VIII only at 30 μM; PKC inhibitors above 1 μM
Procedure: as §1
Data (n = 7), expressed as a percentage of Dex activation, are plotted as means ± S.E. BEAS-2B 2×GRE cells were pre-treated for 30 min with the indicated concentrations of B. PS or JNK or C. JNK in the presence or absence of 10 μM PS, before addition of 10 ng/ml TNF. After 1 h, 10 μM Dex was added and cells harvested 6 h later for luciferase assay. […] D+T indicates Dex plus TNF treatment.
Data (n = 3–4), expressed as fold activation, are plotted as means ± S.E. D+T indicates Dex plus TNF treatment.
as §2

AKT1 phosphorylation = experiment: Western blot of AKT1 phosphorylation in BEAS-2B cells; format: cell-based; conditions: Homo sapiens, 30 min pre-treatment, TNF 10 ng/ml 30 min, western blot (S2 Fig.), read-out: EC50 for block of AKT1 phosphorylation
Excerpt: Cells were lysed in 1× Laemmli buffer supplemented with phosphatase inhibitors (Sigma-Aldrich) and 1× complete protease inhibitor cocktail (Roche; Indianapolis, IN), size fractionated on 12% acrylamide gels and subsequently electro-transferred onto Hybond enhanced chemiluminescent membranes (GE Healthcare; Waukesha, WI). Membranes were blocked in 5% milk in tris-buffered saline containing 1% tween 20 and probed with antibodies against phospho-jun proto-oncogene (pJUN; pc-Jun) (9164; Cell Signaling Technology; Danvers, MA), nuclear factor of kappa light polypeptide gene enhancer in B-cells inhibitor, alpha (NFKBIA; IκBα) (sc-371; Santa Cruz Biotechnology; Dallas, TX), phospho-NFKBIA (9246; Cell Signaling Technology), phospho-AKT1 (9271S; Cell Signaling Technology), AKT (9272S; Cell Signaling Technology) and GAPDH (4699–9555(ST); AbD Serotec; Raleigh, NC). After washing, membranes were incubated with horseradish peroxidase-conjugated anti-rabbit (111–035–003; Jackson ImmunoResearch Laboratories Inc; West Grove, PA) or anti-mouse immunoglobulin (115–035–003; Jackson ImmunoResearch Laboratories Inc). Detection was by enhanced chemiluminescence (Pierce ECL Western Blotting Substrate; Thermo Fisher Scientific Inc.; Rockford, IL) and visualization by autoradiography.
Cells were harvested after 30 min for western blotting and probed for phospho v-akt murine thymoma viral oncogene homolog 1 (pAKT1), AKT1 and glyceraldehyde 3-phosphate dehydrogenase (GAPDH). (PDF) Click here for additional data file.

[3] = BEAS-2B 2×GRE reporter, TNF 10 ng/ml pre-treatment 1 h, 6 h, percent of 1 μM dexamethasone
[4] = BEAS-2B 2×GRE reporter, no TNF, 6 h, percent of 1 μM dexamethasone
[5] = 100 nM ligand, 10 nM formoterol, 6 h (Fig. 8)

CCCC1O[C@@H]2C[C@H]3[C@@H]4CCC5=CC(=O)C=C[C@]5(C)[C@H]4[C@@H](O)C[C@]3(C)[C@]2(C(=O)CO)O1 (some centres unmarked) [Budesonide]
E max (% Dex), Naive [1]: 109.9 ± 2.6 % Dex

C[C@]12C=CC(=O)C=C1CC[C@@H]1[C@@H]2[C@@H](O)C[C@@]2(C)[C@H]1C[C@H]1O[C@@H](C3CCCCC3)O[C@]12C(=O)CO [Des-ciclesonide]
Agonist type on 2×GRE reporter relative to dexamethasone ([1]; BEAS-2B 2×GRE reporter): partial agonists | E max (% Dex), +TNF [1, 3]: 43.1 ± 1.0 % Dex | E max (% Dex), Naive [1, 4]: 76.0 ± 2.0 % Dex | EC50 ([1]; +TNF, BEAS-2B 2×GRE reporter, TNF 10 ng/ml pre-treatment 1 h, 6 h): 3.16e-09 M | EC50 ([1]; Naive, BEAS-2B 2×GRE reporter, no TNF, 6 h): 2.51e-09 M | RGS2 mRNA expression in the presence of formoterol relative to dexamethasone [2, 5]: significantly lower | TSC22D3 mRNA fold induction ([2]; 6 h, 1 μM dexamethasone, 100 nM other ligands (Fig. 8, n = 5)): 71 fold

C[C@@H]1C[C@H]2[C@@H]3CCC4=CC(=O)C=C[C@]4(C)[C@@]3(F)[C@@H](O)C[C@]2(C)[C@@]1(O)C(=O)CO [Dexamethasone]
E max (% Dex), +TNF [1, 3]: 58.7 ± 3.2 % Dex | E max (% Dex), Naive [1, 4]: 100 ± 3.2 % Dex

CCC(=O)O[C@]1(C(=O)SCF)[C@H](C)C[C@H]2[C@@H]3C[C@H](F)C4=CC(=O)C=C[C@]4(C)[C@@]3(F)[C@@H](O)C[C@@]21C [Fluticasone Propionate]
E max (% Dex), +TNF [1, 3]: 51.0 ± 2.8 % Dex | E max (% Dex), Naive [1, 4]: 111.2 ± 4.3 % Dex

CN(C)CCCn1cc(C2=C(c3c[nH]c4ccccc34)C(=O)NC2=O)c2ccccc21 [GF109203X]
Effect on dexamethasone-induced 2×GRE reporter activation (concentration-response) (2×GRE reporter): enhanced

C[C@@H]1C[C@H]2[C@@H]3C[C@H](F)C4=CC(=O)C=C[C@]4(C)[C@@]3(F)[C@@H](O)C[C@]2(C)[C@@]1(OC(=O)C1C(C)(C)C1(C)C)C(=O)OCC#N [GW870086X]
Agonist type on 2×GRE reporter relative to dexamethasone ([1]; BEAS-2B 2×GRE reporter): partial agonists | pEC50 (M), +TNF ([1]; BEAS-2B 2×GRE reporter, TNF 10 ng/ml pre-treatment 1 h, 6 h): 8.0 ± 0.2 * M | E max (% Dex), +TNF [1, 3]: 29.8 ± 1.4 % Dex | pEC50 (M), Naive ([1]; BEAS-2B 2×GRE reporter, no TNF, 6 h): 8.3 ± 0.1 M | E max (% Dex), Naive [1, 4]: 50.1 ± 1.1 % Dex | RGS2 mRNA expression in the presence of formoterol relative to dexamethasone [2, 5]: significantly lower | TSC22D3 mRNA expression in the presence of formoterol, or TNF plus formoterol, relative to dexamethasone [2, 5]: significantly lower

Cn1c2ccccc2c2c3c(c4c5ccccc5n(CCC#N)c4c21)CNC3=O [Gö6976]
Effect on dexamethasone-induced 2×GRE reporter activation (concentration-response) (2×GRE reporter): reduced

O=c1cc(N2CCOCC2)oc2c(-c3ccccc3)cccc12 [LY294002, 2-(4-morpholinyl)-8-phenyl-4H-1-benzopyran-4-one]
EC50 (AKT1 phosphorylation): ~900 nM | Effect on dexamethasone-induced 2×GRE reporter activation (concentration-response) (2×GRE reporter): less effect
